Laboratory results published in patent US9732070B2, “Protein kinase C inhibitors and uses thereof” (Rigel Pharmaceuticals, Inc., priority 2009, dated 2017).

System: Human primary T cells
Assay: IL-2 ELISA, human primary T cell, anti-CD3+CD28 stimulation
Type: cell-based
Conditions: T-cell; IL-2 quantified by ELISA; human primary T cells stimulated with αCD3 and αCD28, 24 hours
Protocol: Human primary T cell isolation and culture: Human primary T cells were prepared as follows. Whole blood was obtained from a healthy volunteer, mixed 1:1 with PBS, layered on to Ficoll Hypaque (Amersham Pharmacia Biotech, Piscataway, N.J., Catalog #17-1440-03) in 2:1 blood/PBS:ficoll ratio and centrifuged for 30 minutes at 4° C. at 1750 rpm. The cells at the serum: ficoll interface were recovered and washed twice with 5 volumes of PBS. These freshly isolated human peripheral blood mononuclear cells were cultured in Yssel's medium containing 40 U/mL IL2 in a flask pre-coated with 1 μg/mL αCD3 and 5 μg/mL αCD28 (Anti-Human CD3, BD Pharmingen Catalog #555336, Anti-Human CD28, Beckman Coulter Catalog #IM1376). The cells were stimulated for 3-4 days, then transferred to a fresh flask and maintained in RPMI (RPMI-1640 with L-Glutamine; Mediatech, Inc., Herndon Va., cat. #10-040-CM) with 10% FBS and 40 U/mL IL-2. The primary T-cells were then washed twice with PBS to remove the IL-2.
Primary T cell stimulation and IL2 ELISA: Human primary T cells (100,000 cells per well) were pre-incubated with or without test compound in Yssel's medium for 1 hour at 37° C. Cells were then stimulated by transferring them to round-bottom 96-well plates pre-coated with 1 μg/ml αCD3 and 5 μg/ml αCD28. For counter assay, cells were instead stimulated by adding 8× stock solutions of PMA and ionomycin in Yssels (for final concentrations of 0.5 ng/ml PMA and 0.1 uM ionomycin, both from Calbiochem). Cells were incubated at 37° C. for 24 hours before 100 μL supernatants were harvested for quantification of IL-2 by ELISA using Human IL-2 Duoset ELISA Kit from R and D Systems, Cat. # DY202E.

| SMILES | IC50 [nM] |
| --- | --- |
| Cn1nnn(-c2cc(Nc3ncc(F)c(NC4CC(C)(C)NC(C)(C)C4)n3)ccc2C#N)c1=O [I-58, N2-(4-cyano-3-(4-methyl-4,5-dihydro-5-oxo-1H-tetrazol-1-yl)phenyl)-5-fluoro-N4-(2,2,6,6-tetramethylpiperidin-4-yl)pyrimidine-2,4-diamine] | < 500 |
| COC(=O)c1cc(Nc2ncc(F)c(NC3CC(C)(C)NC(C)(C)C3)n2)cc(-n2nnn(C)c2=O)c1C [I-60, Methyl 5-((5-fluoro-4-((2,2,6,6-tetramethylpiperidin-4-yl)amino)-2-pyrimidinyl)amino)-2-methyl-3-(4-methyl-4,5-dihysro-5-oxo-1H-tetrazol-1-yl)benzoate] | < 500 |
| CNC(=O)c1cc(Nc2ncc(F)c(NC3CC(C)(C)N(C)C(C)(C)C3)n2)cc(-n2nnn(C)c2=O)c1C [I-64, 5-(5-fluoro-4-(1,2,2,6,6-pentamethylpiperidin-4-ylamino)pyrimidin-2-ylamino)-N,2-dimethyl-3-(4-methyl-5-oxo-4,5-dihydro-1H-tetrazol-1-yl)benzamide] | < 500 |
| Cc1c(C(=O)O)cc(Nc2ncc(F)c(NC3CC(C)(C)N(C)C(C)(C)C3)n2)cc1-n1nnn(C)c1=O [I-65, 5-((5-fluoro-4-((1,2,2,6,6-pentamethylpiperidin-4-yl)amino)-2-pyrimidinyl)amino)-2-methyl-3-(4-methyl-4,5-dihydro-5-oxo-1H-tetrazol-1-yl)benzoic Acid] | 3000 to 25000 |
| CN1C(C)(C)CC(Nc2nc(Nc3ccc(F)c(-n4nnn(C)c4=O)c3F)ncc2F)CC1(C)C [I-66, N2-(2,4-difluoro-3-(4-methyl-4,5-dihydro-5-oxo-1H-tetrazol-1-yl)phenyl)-5-fluoro-N4-(1,2,2,6,6-pentamethylpiperidin-4-yl)pyrimidine-2,4-diamine] | 3000 to 25000 |
| Cn1nnn(-c2cc(Nc3ncc(F)c(NC4CC(C)(C)NC(C)(C)C4)n3)c(F)cc2Cl)c1=O [I-68] | < 500 |

Second part, the compound after the results:

| IC50 [nM] | SMILES |
| --- | --- |
| < 500 | Cc1c(Cl)cc(Nc2ncc(F)c(NC3CC(C)(C)NC(C)(C)C3)n2)cc1-n1nnn(C)c1=O [I-55, N2-(5-chloro-4-methyl-3-(4-methyl-4,5-dihysro-5-oxo-1H-tetrazol-1-yl)phenyl)-5-fluoro-N4-(2,2,6,6-tetramethylpiperidin-4-yl)pyrimidine-2,4-diamine] |
| < 500 | Cc1c(Cl)cc(Nc2ncc(F)c(NC3CC(C)(C)N(C)C(C)(C)C3)n2)cc1-n1nnn(C)c1=O [I-56, N2-(5-chloro-4-methyl-3-(4-methyl-4,5-dihydro-5-oxo-1H-tetrazol-1-yl)phenyl)-5-fluoro-N4-(1,2,2,6,6-pentamethylpiperidin-4-yl)pyrimidine-2,4-diamine] |
| < 500 | Cn1nnn(-c2cc(Nc3ncc(C(N)=O)c(NC4CC(C)(C)NC(C)(C)C4)n3)cc(F)c2C2CC2)c1=O [I-57, N2-(4-cyclopropyl-5-fluoro-3-(4-methyl-4,5-dihydro-5-oxo-1H-tetrazol-1-yl)phenyl)-N4-(2,2,6,6-tetramethylpiperidin-4-yl)pyrimidine-2,4-diamino-5-carboxyamide] |
| < 500 | Cn1nnn(-c2cc(Nc3ncc(F)c(NC4CC(C)(C)NC(C)(C)C4)n3)cc(F)c2C2CC2)c1=O [I-59, 1-(2-cyclopropyl-3-fluoro-5-(5-fluoro-4-(2,2,6,6-tetramethylpiperidin-4-ylamino)pyrimidin-2-ylamino)phenyl)-4-methyl-1H-tetrazol-5(4H)-one] |
| 3000 to 25000 | Cc1c(C(=O)O)cc(Nc2ncc(F)c(NC3CC(C)(C)NC(C)(C)C3)n2)cc1-n1nnn(C)c1=O [I-61] |
| < 500 | Cn1nnn(-c2cc(Nc3ncc(C#N)c(NC4CC(C)(C)NC(C)(C)C4)n3)cc(F)c2C2CC2)c1=O [I-62, N2-(4-cyclopropyl-5-fluoro-3-(4-methyl-4,5-dihydro-5-oxo-1H-tetrazol-1-yl)phenyl)-N4-(2,2,6,6-tetramethylpiperidin-4-yl)pyrimidine-2,4-diamino-5-carbonitrile] |
| < 500 | COC(=O)c1cc(Nc2ncc(F)c(NC3CC(C)(C)N(C)C(C)(C)C3)n2)cc(-n2nnn(C)c2=O)c1C [I-63, Methyl 5-((5-fluoro-4-((1,2,2,6,6-pentamethylpiperidin-4-yl)amino)-2-pyrimidinyl)amino)-2-methyl-3-(4-methyl-4,5-dihysro-5-oxo-1H-tetrazol-1-yl)benzoate] |
